Read-outs that look alike come from different tables or passages of the source.
Legend:
[1] = in vivo, po
[2] = human, in vivo
[3] = Extended pharmacokinetic sampling after the first dose
[4] = test system: pediatric patients with refractory solid tumors; test: Phase I dose escalation and toxicity evaluation; format: in vivo, human
refractory solid tumors = test: Tumor response evaluated by RECIST; format: in vivo, human
VEGF = test: Plasma angiogenic biomarker ELISA, baseline vs day 28 of cycle 1; format: in vivo, human; settings: baseline to day 28 of cycle 1; 12 patients; p = 0.002
[5] = test system: placental growth factor (PlGF); test: as above; format: in vivo, human; settings: baseline to day 28 of cycle 1; 12 patients; p = 0.0003
endoglin = test: as above; format: in vivo, human; settings: baseline to day 28 of cycle 1; 12 patients; p = 0.01
[6] = test system: stromal cell -derived factor-1 (SDF-1); test: as above; format: in vivo, human; settings: baseline to day 28 of cycle 1; 12 patients
[7] = test system: Circulating endothelial cells (CECs) and endothelial progenitor cells (CEPs); test: Circulating endothelial cells and progenitor cells by flow cytometry; format: in vivo, human; settings: 11 patients with paired baseline and day 28 samples
monocyte counts = test: Absolute monocyte counts, day 1 vs day 28; format: in vivo, human
adult patients = settings: cited from earlier work
clinical = settings: human, in vivo, 20 mg/m2
[8] = Steady-state trough plasma concentrations in cycle 1
[9] = dose level 15 g/m^2 (so in the source), N = 8
[10] = 17 patients with decreases, day 1 to day 28

CCNCCNC(=O)c1c(C)[nH]c(/C=C2\C(=O)Nc3ccc(F)cc32)c1C [SU12662]
steady state plasma concentrations reached by [1]: ≤ 7 days
Tmax, Max [2]: 48.7 h
Tmax, Median [2]: 8.0 h
Tmax, Min [2]: 4.0 h
Cmax ([2]; 20 mg/m2): 5.3 ng/mL
Tmax ([2]; 20 mg/m2): 8.0 h
AR (accumulation ratio = Css/C24h) ([3]; dose level 20 mg/m^2, N = 1): 4.2
AR (accumulation ratio = Css/C24h), Max [3, 9]: 11.1
AR (accumulation ratio = Css/C24h), Median [3, 9]: 6.4
AR (accumulation ratio = Css/C24h), Min [3, 9]: 3.4

CCN(CC)CCNC(=O)c1c(C)[nH]c(/C=C2\C(=O)Nc3ccc(F)cc32)c1C [Sunitinib]
cardiac toxicity ([4]; Patient 2, 15 mg/m^2, Day 28, Cycle 1, doxorubicin 367 mg/m^2, prior cardiac radiation): Symptomatic diastolic and systolic dysfunction; transient ischemic changes on EKG
maximum tolerated dose ([4]; children without prior anthracycline exposure or radiation therapy involving a cardiac field): 15 mg/m^2
ALT elevation G1 ([4]; human, in vivo): 11%
Hypophosphatemia G1 ([4]; human, in vivo): 11%
Leukopenia G1 ([4]; human, in vivo): 40%
Thrombocytopenia G1 ([4]; human, in vivo): 40%
ALT elevation G1 ([4]; human, in vivo, 1 cycle): 17%
AST elevation G1 ([4]; human, in vivo, 1 cycle): 33%
Anemia G1 ([4]; human, in vivo, 1 cycle): 25%
Anorexia G2 ([4]; human, in vivo, 1 cycle): 17%
Diarrhea G1 ([4]; human, in vivo, 1 cycle): 33%
Hypoalbuminemia G1 ([4]; human, in vivo, 1 cycle): 25%
Hypocalcemia G1 ([4]; human, in vivo, 1 cycle): 25%
patients who developed hypothyroidism (≤ grade 2) ([4]; human, in vivo, 1 cycle): Three of 23
ALT elevation G2 ([4]; human, in vivo, 42 days): 11%
Anorexia G1 ([4]; human, in vivo, 42 days): 11%
CNS hemorrhage G4 ([4]; human, in vivo, 42 days): 11%
Constipation G1 ([4]; human, in vivo, 42 days): 11%
Cranial neuropathy G4 ([4]; human, in vivo, 42 days): 11%
Decreased serum bicarbonate G1 ([4]; human, in vivo, 42 days): 11%
Dehydration G1 ([4]; human, in vivo, 42 days): 11%
Diarrhea G1 ([4]; human, in vivo, 42 days): 11%
Diarrhea G2 ([4]; human, in vivo, 42 days): 11%
Epistaxis G1 ([4]; human, in vivo, 42 days): 11%
Eye swelling G1 ([4]; human, in vivo, 42 days): 11%
Headache G1 ([4]; human, in vivo, 42 days): 11%
Hypernatremia G1 ([4]; human, in vivo, 42 days): 11%
Hypertension G1 ([4]; human, in vivo, 42 days): 11%
Hyperuricemia G1 ([4]; human, in vivo, 42 days): 11%
Hyperuricemia G4 ([4]; human, in vivo, 42 days): 11%
Hypoalbuminemia G1 ([4]; human, in vivo, 42 days): 11%
Hypomagnesemia G1 ([4]; human, in vivo, 42 days): 11%
Hypothyroidism G1 ([4]; human, in vivo, 42 days): 11%
Left ventricular systolic dysfunction G2 ([4]; human, in vivo, 42 days): 17%
Leukopenia G1 ([4]; human, in vivo, 42 days): 33%
Leukopenia G2 ([4]; human, in vivo, 42 days): 17%
Leukopenia G3 ([4]; human, in vivo, 42 days): 25%
Lipase elevation G1 ([4]; human, in vivo, 42 days): 11%
Lymphopenia G1 ([4]; human, in vivo, 42 days): 17%
Lymphopenia G3 ([4]; human, in vivo, 42 days): 17%
Muscle or joint pain G1 ([4]; human, in vivo, 42 days): 11%
Muscle or joint pain G2 ([4]; human, in vivo, 42 days): 11%
Neutropenia G2 ([4]; human, in vivo, 42 days): 17%
Neutropenia G3 ([4]; human, in vivo, 42 days): 33%
Thrombocytopenia G1 ([4]; human, in vivo, 42 days): 42%
Thrombocytopenia G2 ([4]; human, in vivo, 42 days): 25%
Weight loss G2 ([4]; human, in vivo, 42 days): 17%
cardiac dysfunction ([4]; in vivo): No cardiac dysfunction was observed
changes in hair color and texture ([4]; in vivo): not reported
growth plate thickening ([4]; in vivo): did not demonstrate any growth plate thickening
hypertension ([4]; in vivo): rarely reported
patients who developed hypothyroidism (≤ grade 2) ([4]; in vivo): Two patients
maximum tolerated dose ([4]; patients without prior anthracycline or cardiac radiation exposure, once daily for 28 days followed by a 14-day break): 15 mg/m^2/day
objective responses (refractory solid tumors; 17 patients evaluable for response): No objective responses were observed
patients with best response of stable disease (refractory solid tumors; diffuse pontine glioma (2 cycles), osteosarcoma (4 cycles), epithelioid sarcoma (9 cycles), ganglioglioma (9 cycles)): Four patients
123I-meta-iodobenzylguanidine scan finding (refractory solid tumors; one patient with neuroblastoma, one cycle at 20 mg/m^2, persistent bone marrow disease): resolution of the disease noted at baseline
change in plasma VEGF concentration (VEGF): increased significantly
change in plasma placental growth factor concentration [5]: increased significantly
change in plasma endoglin concentration (endoglin): decreased significantly
change in plasma SDF-1 concentration [6]: did not change in a consistent manner
change in totals and subsets of CECs and CEPs [7]: did not reliably change
decrease in AMC, range (monocyte counts; [10]): 18 to 1253 µL⁻¹
median decrease in AMC (monocyte counts; [10]): 117 µL⁻¹
patients with decreases in absolute monocyte count (AMC) (monocyte counts; 18 patients with paired day 1 and day 28 counts): 17
AUC0-48h [2]: 698 ng·h/L
AUC0-48h, Median [2]: 492 ng·h/L
AUC0-∞ [2]: 879 ng·h/L
AUC0-∞, Median [2]: 747 ng·h/L
Tmax, Max [2]: 48.0 h
Tmax, Min [2]: 2.0 h
median peak plasma concentration [2]: 16.8 ng/mL
peak plasma concentration, range [2]: 9.5 to 61.4 ng/mL
time at which median peak plasma concentration was achieved [2]: 7 h
incidence of grade 3 or symptomatic congestive heart failure (adult patients; adult patients treated with sunitinib, ref [30]-[32]): 7-15%
cases requiring dose reductions (adult patients; adults treated with sunitinib, ref [5], [6], [24], [25]): 11-50%
Cmax (clinical): 26.3 ng/mL
Css, Max ([8]; 15 mg/m^2 dose level): 57.9 ng/mL
Css, Median ([8]; 15 mg/m^2 dose level): 28.0 ng/mL
Css, Min ([8]; 15 mg/m^2 dose level): 13.2 ng/mL
Css, Max ([8]; 20 mg/m^2 dose level): 65.0 ng/mL
Css, Median ([8]; 20 mg/m^2 dose level): 36.5 ng/mL
Css, Min ([8]; 20 mg/m^2 dose level): 28.2 ng/mL
Day 21 Css sunitinib ([8]; Patient 1 with cardiac toxicity, 20 mg/m^2): 40 ng/mL
Day 21 Css sunitinib ([8]; Patient 2 with cardiac toxicity, 15 mg/m^2): 18 ng/mL
steady state plasma concentrations reached by ([8]; once daily oral dosing, cycle 1): ≤ 7 days

Reference: article PMC3149978 (Clinical cancer research : an official journal of the …, 2011)
